Laboratory results: patent publication US11629166B2, “Compound for treating clostridium difficile” (priority 2014, dated 2023)

Legend:
Type in all cases: cell-based, Clostridium Difficile
[1] = system: C. Difficile NCTC 11204 and ribotype 027 (R20291) spores; test: Germination tests, heat shock method (heat vs ice); settings: 2% (w/v) germination solution, 1 hour, strains 11204 and 027; for >1 log reduction on ice: control samples kept on ice, reduction suggests sporicide or germinant/antimicrobial; for >1 log reduction on heat: then 70° C. for 20 minutes, reduction suggests germinant
Description: Many of the synthesised compounds were tested for their germinating and antimicrobial abilities against C. Difficile. Due to the insolubility of some of the compounds in water, DMSO, ethanol and methanol were used to dissolve the compounds.
The C. Difficile reference strain, NCTC 11204 and C. Difficile ribotype 027 (R20291) (Anaerobic Reference Laboratory, Cardiff, UK) were used during testing.
Spore suspensions of C. Difficile were prepared following the method proposed by Shetty et al. (1999). Briefly, Columbia base agar plates were inoculated with the relevant strain of C. Difficile and incubated for 72 hours anaerobically at 37° C. (MiniMACS anaerobic cabinet, Don Whitley Scientific, Shipley, UK). Then, the plates were removed and left or 24 hours in aerobic conditions at room temperature. Colonies were then harvested into 20 mL of 50% (w/v) ethanol and 50% saline, and vortex thoroughly. These were stored at 4° C. until needed.
All experiments were performed in triplicate using spore suspensions containing 1×10^7 CFU mL^−1 spores of C. difficile NCTC 11204 and ribotype 027.
Before use, 1 mL of spores were centrifuged at 13000 rpm for 10 minutes (Spectrafuge 24D; Labnet, Woodbridge, USA). The supernatant was discarded, and the pellet resuspended in 1 mL sterile distilled water and vortex mixed thoroughly.
Germination solutions were prepared using 2% (w/v) of the compound in diluent (DMSO, ethanol, methanol, water) plus double strength thioglycollate medium (Oxoid, UK).
For the heat shock method, 100 μl spores were exposed to 100 μl of the germination solution and incubated at room temperature in air for 1 hour. The entire 200 μl sample was then added to 800 μl sterile distilled water to dilute out the germinant to ineffective concentrations. Samples were placed on heat at 70° C. for 20 minutes to eliminate any germinated, metabolically active spores. Control samples were kept on ice. Solutions were then diluted accordingly using sterile distilled water, and cultured onto fastidious anaerobic agar (Lab M, Bury, UK), supplemented with 0.1% (w/v) sodium taurocholate (ST) and 5% (w/v) defibrinated horse blood using the Miles and Misra method (Miles et al., 1938). These were then incubated anaerobically for 48 hours at 37° C. (MiniMACS anaerobic cabinet, Don Whitley Scientific, Shipley, UK) and the CFU mL^−1 counted.
The results from the table above show the compounds that gave a 1 log reduction or more between the initial spore count and the spore count after the heat and ice treatment. […] Due to the nature of this test, it is difficult to distinguish between the two.

C. Difficile spores [2] = test: Germination and antimicrobial efficiency (dual activity) of compound 129 in HDPE; settings: for % Reduction 2 hours / Log Reduction 2 hours / % Reduction 24 hours / Log Reduction 24 hours / % Reduction 96 hours / Log Reduction 96 hours: HDPE polymer
Source text: Reactively processed HDPE polymer containing compound 129 is shown to have the ability to both germinate the spores of C. […] This exemplifies, therefore, the dual action of compound 129 and its efficacy both as a germinant and an antimicrobial.

C. Difficile spores [3] = test: Germination activity of compound 129 reactively processed with HDPE after subsequent exposure to ethanol; settings: for % Reduction 2 hours / Log Reduction 2 hours / % Reduction 24 hours / Log Reduction 24 hours / % Reduction 96 hours / Log Reduction 96 hours: HDPE polymer film, after ethanol exposure
Description: HDPE (high density polyethylene) samples containing the modified bile salt compound 129, reactively processed under different compression moulding conditions, were tested to determine the germination activity. […] Difficile spores. This confirms the germination activity of compound 129 when incorporated into HDPE by reactive processing.

C[C@H](CCC(=O)NCC[N+]1(c2ccc(C(=O)c3ccccc3)cc2)CCCC1)[C@H]1CC[C@H]2[C@@H]3[C@H](O)C[C@@H]4C[C@H](O)CC[C@]4(C)[C@H]3C[C@H](O)[C@]12C.[Br-] [2/150]
>1 log reduction on ice [1]: Yes (11204)

C=Cc1ccc(C[N+](C)(C)CCNC(=O)CC[C@@H](C)[C@H]2CCC3C4CCC5C[C@H](O)CC[C@]5(C)C4CC[C@@]32C)cc1.[Cl-] (stereo partly drawn) [Compound 129, 2-[[(4R)-4-[(3R,10S,13R,17R)-3-hydroxy-10,13-dimethyl-2,3,4,5,6,7,8,9,11,-12,14,15,16,17-tetradecahydro-1H-cyclopenta[a]phenanthren-17-yl]pentanoyl]-amino]ethyl-dimethyl-[(4-vinylphenyl)methyl]ammonium chloride]
% Reduction 2 hours (C. Difficile spores [2]; 3% T101 165° C.): 96.9% | Log Reduction 2 hours (C. Difficile spores [2]; 3% T101 165° C.): 1.563 Log | % Reduction 24 hours (C. Difficile spores [2]; 3% T101 165° C.): 86.9% | Log Reduction 24 hours (C. Difficile spores [2]; 3% T101 165° C.): 0.940 Log | % Reduction 96 hours (C. Difficile spores [2]; 3% T101 165° C.): 78.0% | Log Reduction 96 hours (C. Difficile spores [2]; 3% T101 165° C.): 0.714 Log | % Reduction 2 hours (C. Difficile spores [2]; 3% T101 170° C.): 79.6% | Log Reduction 2 hours (C. Difficile spores [2]; 3% T101 170° C.): 0.747 Log | % Reduction 24 hours (C. Difficile spores [2]; 3% T101 170° C.): 75.4% | Log Reduction 24 hours (C. Difficile spores [2]; 3% T101 170° C.): 0.666 Log | % Reduction 96 hours (C. Difficile spores [2]; 3% T101 170° C.): 88.5% | Log Reduction 96 hours (C. Difficile spores [2]; 3% T101 170° C.): 0.998 Log | % Reduction 2 hours (C. Difficile spores [2]; 6% T101 160° C.): 0.0% | Log Reduction 2 hours (C. Difficile spores [2]; 6% T101 160° C.): 0.057 Log | % Reduction 24 hours (C. Difficile spores [2]; 6% T101 160° C.): 44.8% | Log Reduction 24 hours (C. Difficile spores [2]; 6% T101 160° C.): 0.315 Log | % Reduction 96 hours (C. Difficile spores [2]; 6% T101 160° C.): 86.8% | Log Reduction 96 hours (C. Difficile spores [2]; 6% T101 160° C.): 0.936 Log | spore reduction (C. Difficile spores [2]; reactive processing of the polymer at 170° C.): 79.6% | reduction of the subsequent metabolically active bio-load after spore germination (C. Difficile spores [2]; reactively processed HDPE polymer containing compound 129): 96.9% | germination activity, lower vs higher processing temperature (C. Difficile spores [3]; 3% films, samples processed at the lower temperature (165° C. vs 170° C.), after 24 and 46 hours): slightly higher level of germination activity | % Reduction 2 hours (C. Difficile spores [3]; 3% T101 160° C.): 79.8% | Log Reduction 2 hours (C. Difficile spores [3]; 3% T101 160° C.): 0.752 Log | % Reduction 24 hours (C. Difficile spores [3]; 3% T101 160° C.): 67.6% | Log Reduction 24 hours (C. Difficile spores [3]; 3% T101 160° C.): 0.546 Log | % Reduction 96 hours (C. Difficile spores [3]; 3% T101 160° C.): 69.8% | Log Reduction 96 hours (C. Difficile spores [3]; 3% T101 160° C.): 0.577 Log | % Reduction 2 hours (C. Difficile spores [3]; 3% T101 165° C.): 99.2% | Log Reduction 2 hours (C. Difficile spores [3]; 3% T101 165° C.): 2.165 Log | % Reduction 24 hours (C. Difficile spores [3]; 3% T101 165° C.): 97.1% | Log Reduction 24 hours (C. Difficile spores [3]; 3% T101 165° C.): 1.598 Log | % Reduction 96 hours (C. Difficile spores [3]; 3% T101 165° C.): 92.0% | Log Reduction 96 hours (C. Difficile spores [3]; 3% T101 165° C.): 1.154 Log | % Reduction 2 hours (C. Difficile spores [3]; 3% T101 170° C.): 99.2% | Log Reduction 2 hours (C. Difficile spores [3]; 3% T101 170° C.): 2.165 Log | % Reduction 24 hours (C. Difficile spores [3]; 3% T101 170° C.): 87.8% | Log Reduction 24 hours (C. Difficile spores [3]; 3% T101 170° C.): 0.971 Log | % Reduction 96 hours (C. Difficile spores [3]; 3% T101 170° C.): 82.0% | Log Reduction 96 hours (C. Difficile spores [3]; 3% T101 170° C.): 0.802 Log | germination activity (C. Difficile spores [3]; HDPE samples with a higher amount of compound 129 (6%)): did not perform well | Log reduction compared to the HDPE/peroxide T101 control (C. Difficile spores [3]; polymer film containing 3% of compound 129, prepared both at 165° C. and 170° C., at 2 hours): 2.2 Log | reduction in C. Difficile spores (C. Difficile spores [3]; prepared at 165° C./170° C., following subsequent exposure to ethanol): 99.2%

C[C@H](CCC(=O)NCCN1CCCC1)[C@H]1CC[C@H]2[C@@H]3[C@H](O)C[C@@H]4C[C@H](O)CC[C@]4(C)[C@H]3C[C@H](O)[C@]12C [Compound 10]
>1 log reduction on heat [1]: Yes (11204)

CCC[N+]1(CCNC(=O)CC[C@@H](C)[C@H]2CC[C@H]3[C@@H]4[C@H](O)C[C@@H]5C[C@H](O)CC[C@]5(C)[C@H]4C[C@H](O)[C@]23C)CCCC1.[I-] [Compound 45]
>1 log reduction on ice [1]: yes | >1 log reduction on heat [1]: yes

CCCCN(CCCC)CCCNC(=O)CC[C@@H](C)[C@H]1CC[C@H]2[C@@H]3[C@H](O)C[C@@H]4C[C@H](O)CC[C@]4(C)[C@H]3C[C@H](O)[C@]12C [Compound 7]
>1 log reduction on ice [1]: Yes (11204) | >1 log reduction on heat [1]: Yes (11204)

CCCCCC[N+](C)(C)CCCNC(=O)CC[C@@H](C)[C@H]1CCC2C3C(C[C@H](O)[C@@]21C)[C@@]1(C)CC[C@@H](O)CC1C[C@H]3O (stereo partly shown) [Compound 29]
>1 log reduction on heat [1]: yes

C[C@H](CCC(=O)NCc1ccccc1)[C@H]1CC[C@H]2[C@@H]3[C@H](O)C[C@@H]4C[C@H](O)CC[C@]4(C)[C@H]3C[C@H](O)[C@]12C [Compound 2, cholic acid benzyl amide]
>1 log reduction on ice [1]: Yes (11204)

CCCCCCCCCCCCCCCCCCNC(=O)CC[C@@H](C)[C@H]1CC[C@H]2[C@@H]3[C@H](O)C[C@@H]4C[C@H](O)CC[C@]4(C)[C@H]3C[C@H](O)[C@]12C [Compound 16]
>1 log reduction on heat [1]: Yes (11204 and 027)

C[C@H](CCC(=O)NCCC[N+](C)(C)c1ccc(C(=O)c2ccccc2)cc1)[C@H]1CC[C@H]2[C@@H]3[C@H](O)C[C@@H]4C[C@H](O)CC[C@]4(C)[C@H]3C[C@H](O)[C@]12C.[Br-] [2/148]
>1 log reduction on heat [1]: Yes (027)

C=CC[N+](C)(C)CCCNC(=O)CC[C@@H](C)[C@H]1CCC2C3C(C[C@H](O)[C@@]21C)[C@@]1(C)CC[C@@H](O)CC1C[C@H]3O.[Br-] (stereo partly shown) [Compound 34, 3-cholanamidopropyl-allyl-dimethyl-ammonium;bromide]
>1 log reduction on heat [1]: yes

C[C@H](CCC(=O)NCC[N+]1(Cc2ccccc2)CCCC1)[C@H]1CC[C@H]2[C@@H]3[C@H](O)C[C@@H]4C[C@H](O)CC[C@]4(C)[C@H]3C[C@H](O)[C@]12C [Compound 50]
>1 log reduction on ice [1]: yes | >1 log reduction on heat [1]: yes
